Assay [1] relates to HL-60 (myeloblastic leukaemia). As to the kind of experiment: growth inhibition of human tumour cells, 72 h incubation. It is filed as cell-based. As to conditions: 72 hours of incubation. The protocol: (§1) On the one hand, human cells of different types of cancer were used. The cells were incubated at 37° C. and 5% of CO2 in air, in culture medium RPMI1640 or DMEM with bovine foetal serum (10%) and other supplements and in the presence or absence of the triglycerides of the present invention at different concentrations during 72 hours. It was possible to observe that the hydroxy-triglycerides of the invention have a high efficacy against the growth of human tumour cells, but not against the growth of normal non-tumour cells (human fibroblasts, MRC5).

The subject of assay [2] is NCI1975D (lung). The description is as above. It is filed as cell-based. As to conditions: 72 hours of incubation. The method, then: as §1
The test system of assay [3] is SH-SY5Y (neuroblastoma). The description is as above. It is filed as cell-based. As to conditions: 72 hours of incubation. The method, then:
as §1

The test system of assay [4] is HeLa (cervix). The assay is described as above. It is filed as cell-based. As to conditions: 72 hours of incubation. The method, then: as §1
The test system of assay [5] is SF767 (glioma). Described as above. As to conditions: 72 hours of incubation. It is filed as cell-based. The method, then:
as §1

Assay [6] relates to A549 (lung). The assay is described as above. It is filed as cell-based. As to conditions: 72 hours of incubation. The protocol:
as §1

For assay [7], the system named is HepG2 (liver carcinoma). The description is as above. It is filed as cell-based. As to conditions: 72 hours of incubation. The protocol: as §1
Assay [8] relates to U87M (glioma). The description is as above. It is filed as cell-based. As to conditions: 72 hours of incubation. The protocol:
as §1

Assay [9] has as its system BXPC3 (pancreas). The assay is described as above. It is filed as cell-based. As to conditions: 72 hours of incubation. The protocol:
as §1

Assay [10] has as its system MIA-PaCa-2 (pancreas). The assay is described as above. It is filed as cell-based. As to conditions: 72 hours of incubation. The protocol:
as §1

Assay [11] deals with HT-29 (colon). The description is as above. As to conditions: 72 hours of incubation. It is filed as cell-based. The protocol:
as §1

The subject of assay [12] is MDA-MB231 (breast). The description is as above. As to conditions: 72 hours of incubation. It is filed as cell-based. The method, then:
as §1

The test system of assay [13] is Jurkat (lymphoblastic leukaemia). Described as above. It is filed as cell-based. As to conditions: 72 hours of incubation. The method, then: as §1
Assay [14] relates to PC3 (prostate). The assay is described as above. It is filed as cell-based. As to conditions: 72 hours of incubation. The protocol:
as §1

Assay [15] is described as follows: body weight of SHR rats. It is filed as in vivo. As to conditions: 14 days, 600 mg/kg, 12 h, p.o., basal weight 342 grams. An excerpt: Metabolic and cardiovascular pathologies are closely related. The overfeeding which characterises our society not only gives rise to problems of obesity and excess weight. It is also linked to the appearance of diabetes, dyslipidaemia, hypertension, strokes, arteriosclerosis, ictus, etc. All of these pathologies increase the risk of premature death and can even cause death. In this sense, certain natural oils show a certain efficacy against this type of pathologies, but their power is limited. In contrast, the molecules of the invention have an important effect against the development of this type of pathologies. To be able to study the effects of the compounds of the invention for the prevention and treatment of metabolic and cardiovascular pathologies, hypertensive rats were used (SHR strain, spontaneously hypertensive rats). These rats present obesity, high blood pressure, dyslipidaemia (hypercholesterolemia and hypertriglyceridemia), diabetes, metabolic syndrome and other related health problems.

The target of assay [16] is T1, Glycogen Branching Enzyme 1 (GBE1) variant Y329S (Homo sapiens, UniProt Q04446, Y329S).
T1 sequence (Q04446 1-702 Y329S): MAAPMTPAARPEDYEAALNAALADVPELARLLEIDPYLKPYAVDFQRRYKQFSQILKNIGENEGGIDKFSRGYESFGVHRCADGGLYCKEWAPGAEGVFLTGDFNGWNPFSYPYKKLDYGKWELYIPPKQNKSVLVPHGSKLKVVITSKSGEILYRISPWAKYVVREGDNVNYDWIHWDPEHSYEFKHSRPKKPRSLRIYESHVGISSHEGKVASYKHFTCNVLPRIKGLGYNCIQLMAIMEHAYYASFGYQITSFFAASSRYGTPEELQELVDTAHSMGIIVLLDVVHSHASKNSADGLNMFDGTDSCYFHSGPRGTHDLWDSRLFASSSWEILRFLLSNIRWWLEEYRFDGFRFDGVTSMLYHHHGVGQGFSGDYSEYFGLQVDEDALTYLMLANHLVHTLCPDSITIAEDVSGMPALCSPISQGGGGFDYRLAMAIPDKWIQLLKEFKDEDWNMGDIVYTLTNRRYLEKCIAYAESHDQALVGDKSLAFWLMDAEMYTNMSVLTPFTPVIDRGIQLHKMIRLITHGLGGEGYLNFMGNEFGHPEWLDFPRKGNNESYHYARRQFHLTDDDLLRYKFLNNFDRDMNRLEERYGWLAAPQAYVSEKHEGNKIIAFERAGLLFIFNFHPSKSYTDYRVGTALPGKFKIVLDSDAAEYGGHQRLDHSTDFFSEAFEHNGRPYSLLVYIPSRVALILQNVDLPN
As to the kind of experiment: activity of purified enzyme GBE1 Y329S in the presence of PC membranes. It is filed as biochemical. As to conditions: PC membranes with TGM 20 mol %; non-mutated enzyme = 100% (0.76 nmol/min · ng protein). An excerpt:
It has been possible to observe that the molecules of the present invention are capable of regulating the activity of the Glycogen Branching Enzyme 1 (GBE1) and its joining to membranes (Table 9). Alterations in this enzyme give rise to a neurodegenerative process known as APBD (Kakhlon et al., 2013). It has been described that a modification of tyrosine in position 329 of this enzyme (Y329S) causes a reduction in the activity of GBE1. This gives rise to a lower branching of glycogen, which precipitates forming […] which interfere with cell activity (Kakhlon et al., 2013). This gives rise to problems in the function of certain organs, to motor problems and, in some cases, to cognitive decline. We have been able to verify that the hydroxy-triglycerides of the present invention are capable of regulating the joining of native GBE1 (wild type, wt) and with the variant Y329S to membranes and to increase the activity of the form Y329S, which is very low in normal conditions (Table 9). For this reason, the molecules of the present invention are effective for the prevention and treatment of the polyglucosan bodies disease, APBD.

Molecules are shown by their SMILES.

For `CCC=CCC=CCC=CCCCCCCC(O)C(=O)OCC(COC(=O)C(O)CCCCCCC=CCC=CCC=CCC)OC(=O)C(O)CCCCCCC=CCC=CCC=CCC` (stereo not shown) [TGM3A, 1,2,3-tri(2′-hydroxy-octadec-9′,12′,15′-trienoyl)glycerol], the IC50 in assay [1] was 58 µM; in assay [2] it was 64 µM; in [3] it was 39 µM; in [4], 164 µM; in assay [5], 57 µM; in assay [6], 43 µM. In addition, the IC50 in [7] stood at 42 µM; in [8], 31 µM; in [9] it was 80 µM; in [10], 142 µM; in [11], 187 µM; in [12], 116 µM. Also, the concentration for half-maximal inhibition (IC50) is 95 µM in [13] and 119 µM in assay [14]. For the same molecule, the “ΔWeight, change in weight” value in assay [15] was -14 ± 4 g. Also, the “Activity Y329S” value in assay [16] is given as 10 ± 2%.

One may read the IC50 as the concentration that gives 50% inhibition. A higher IC50 goes with weaker potency.

For the origin of these results see patent US10047036B2, “Method for the synthesis of hydroxy-triglycerides and uses thereof for the prevention and treatment of diseases” (UNIVERSITAT DE LES ILLES BALEARS, priority 2014, dated 2018).
